# Data taken from patent publication US20070015780A1, “Method of treating cancer with azaspirane compositions” (priority 2003, published 2007).
# Assays:
# [1] = system: HS 578T; assay: NCI SRB tumor cell growth assay, Breast Cancer; assay type: cell-based
# Protocol: (§1) An in vitro assay which tested the ability of N,N,-diethyl-8,8-dipropyl-2-azaspiro[4,5]decane-2-propanamine dimaleate (Compound 1) to inhibit the growth of known cancer cell lines was performed by the National Cancer Institute in accordance with standard procedures. See: Lin, Z. X., Hoult, J. R., and Raman, A. Sulphorhodamine B assay for measuring proliferation of a pigmented melanocyte cell line and its application to the evaluation of crude drugs used in the treatment of vitiligo. J Ethnopharmacol. 66: 141-150, 1999. Briefly, selected tumor cell lines were cultured in media containing five different concentrations of Compound 1. After 48 hours of continuous exposure, a sulforhodamine B (SRB) assay was used to estimate cell viability or growth via optical measurements.
# (§2) From the measurements, the following values were determined: 1) the concentration of Compound 1 at which a tumor cell growth inhibition of 50% (relative to control) occurs (GI50), 2) the concentration of Compound 1 at which no growth occurs (total growth inhibition, TGI), and 3) the concentration of Compound 1 at which the […] (LC 50). […] FIG. 6 illustrates, graphically, tumor cell growth as a function of Compound 1 concentration of the scanned tumor cell lines.
# [2] = system: CaCo-2 cells; assay: Induction of apoptosis, DNA fragmentation analysis; assay type: cell-based, human; conditions: 12 hours
# Protocol: (§3) T84, CaCo-2 and HUVEC cells, respectively, were grown in 100 mm dishes for 7-9 days, culture media for HUVEC was EGM-2 (Clonetics, BioWhitaker Co.), until they reached semi-confluency. Cell monolayers were then treated for 12 hours (CaCo-2 and T84) and 16 hours (HUVEC), respectively, at the indicated concentrations of N,N,-diethyl-8,8-dipropyl-2-azaspiro[4,5]decane-2-propanamine dimaleate (Compound 1) in culture media. Cells were collected by trypsinization and the apoptotic DNA was isolated from these cells following the instructions of the DNA fragmentation analysis kit (Boehringer Mannheim Corp., Indianapolis, Ind.). The apoptotic DNA was evaluated using 1.5% agarose gel electrophoresis followed by staining with ethidium bromide. M denotes the lane containing molecular weight markers of DNA.
# [3] = system: HUVEC cells; assay: Induction of apoptosis, DNA fragmentation analysis; assay type: cell-based, human; conditions: 16 hours
# Protocol: as §3
# [4] = system: T84 cells; assay: Induction of apoptosis, DNA fragmentation analysis; assay type: cell-based, human; conditions: 12 hours
# Protocol: as §3
# [5] = system: caspase-3; assay: Activation of caspases in T84 colon carcinoma cells; assay type: cell-based, human; conditions: 10 hours
# Protocol: (§4) Activities of caspase-3 and caspase-9 were measured using […] assay kits (BioVision, CA). The procedure used was essentially the same as described in the manufacturer's instruction. Briefly, 7-day-old monolayers of T 84 cells in 100 mm dishes were treated with either vehicle (as control) or N,N,-diethyl-8,8-dipropyl-2-azaspiro[4,5]decane-2-propanamine dimaleate (Compound 1) at the indicated respective concentrations for 10 hours. After the treatment, cells were washed with PBS and the cell extracts were prepared by resuspending cells in 200 μl (˜10^8 cells) of lysis buffer provided in the kit. Cell debris was removed by centrifugation at 10,000×g for 30 min. Supernatants (50-100 μg of protein) were pre-incubated with 10 mM dithiothreitol, 50 mM HEPES, 10% sucrose, 0.1% CHAPS (pH 7.5) and the reaction was started with the addition of 100 μM of the appropriate substrate (DEVD-pNA for caspase-3 and LEHD-pNA for caspase-9). The assay plates (96-well) were incubated at 37° C. for 2 hours, and the yellow color resulting from the release of pNA was measured at 405 nm using an ELISA reader. Samples were run in triplicate and results were expressed as an average of three determinations.
# [6] = system: caspase-9; assay: as above; assay type: cell-based, human; conditions: 10 hours
# Protocol: as §4
# [7] = system: Various Tumor Cell Lines; assay: NCI SRB tumor cell growth assay, summary over all cell lines; assay type: cell-based
# Protocol: as §1, §2
# [8] = system: chorioallantoic membrane (CAM); assay: Anti-angiogenesis CAM assay; assay type: in vivo, White Leghorn eggs; conditions: ten eggs, 48 hours
# Protocol: The dosing was effected by pipetting 40 μl of the indicated solution onto a 13 mm round Thermanox® coverslip and allowing it to air dry. After the material appeared dry, the coverslip was placed onto the chorioallantoic membrane (CAM) of each egg insuring contact of the dried test article with the CAM. After dosing, the eggs were returned to the incubator for approximately 48 hours. Following the 48 hour exposure period, the eggs were removed from the incubator, observed for viability, and the exposed area under the coverslip was examined for loss of vasculature.
SMILES,Log10 TGI [1],DNA laddering (apoptosis) [2],DNA laddering (apoptosis) [3],DNA laddering (apoptosis) [4],caspase-3 activity [5],caspase-9 activity [6],"Log10 LC50, MG_MID [7]",Dead Eggs ([8]; Dose Per Egg 25 μg),Dead Eggs ([8]; Dose Per Egg 50 μg),Dead Eggs ([8]; Dose Per Egg 100 μg),Dead Eggs ([8]; Dose Per Egg 200 μg),Dead Eggs ([8]; Dose Per Egg 400 μg)
"CCCC1(CCC)CCC2(CCN(CCCN(CC)CC)C2)CC1.O=C(O)/C=C\C(=O)O.O=C(O)/C=C\C(=O)O [Compound 1, N,N,-diethyl-8,8-dipropyl-2-azaspiro[4,5]decane-2-propanamine dimaleate]",−5.40,formation of DNA laddering in a dose-dependent manner,formation of DNA laddering in a dose-dependent manner,formation of DNA laddering in a dose-dependent manner,activation,activation,−5.06,0,0,4,3,7
"O=C1CCC(N2C(=O)c3ccccc3C2=O)C(=O)N1 (stereo not shown) [Thalidomide, reference compound]",–,–,–,–,–,–,–,–,–,0,–,–
